Experimental data published in patent EP0795330A1, “Medicament for the treatment of insomnia” (ELI LILLY AND COMPANY, priority 1996, dated 1997).

Key:
[1] = detection of radiolabelled olanzapine in saliva; type: in vivo, patients
Protocol: For example, in the treatment of adult humans, dosages of from 5 to 25 mg per day may be used. A once a day dosage is normally sufficient. For treatment of insomnia, a dose range of from 5 to 100 mg, is suitable, while a dosage of from 5 to 25 mg per day is preferred.

5-HT1C receptor = biological target: T1, 5-HT1C receptor (Homo sapiens, UniProt P28335); assay: pharmacological studies, 5-HT1C receptor activity
T1 sequence (P28335 33-458): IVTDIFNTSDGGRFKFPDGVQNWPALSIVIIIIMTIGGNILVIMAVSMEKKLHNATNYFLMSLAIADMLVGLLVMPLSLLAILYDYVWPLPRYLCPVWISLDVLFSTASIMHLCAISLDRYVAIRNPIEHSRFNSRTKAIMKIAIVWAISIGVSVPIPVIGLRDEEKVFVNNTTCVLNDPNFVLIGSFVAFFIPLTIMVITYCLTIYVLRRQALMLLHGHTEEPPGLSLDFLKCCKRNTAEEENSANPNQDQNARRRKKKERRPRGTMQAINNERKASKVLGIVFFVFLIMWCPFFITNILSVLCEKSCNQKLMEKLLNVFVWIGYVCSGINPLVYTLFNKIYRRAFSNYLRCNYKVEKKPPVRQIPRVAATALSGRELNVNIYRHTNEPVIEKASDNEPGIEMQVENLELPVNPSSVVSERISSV

## Cc1cc2c(s1)Nc1ccccc1N=C2N1CCN(C)CC1 [olanzapine, 2-methyl-4-(4-methyl-l-piperazinyl)-10H-thieno[2,3-b][1,5] benzodiazepine]
[1]
  detection in the saliva: can be detected in the saliva
5-HT1C receptor
  activity at the 5-HT1C receptor: active
